# Literature values, collected in patent US20040013710A1, “Hydrolyzable tannin extracts from plants effective at inhibiting bacterial adherence to surfaces” (priority 2003, published 2004).
# System: type 1 E. coli
smiles,measurement,value
O=C(CO)[C@@H](O)[C@H](O)[C@H](O)CO [fructose],inhibition of Type I adherence,inhibited
